The record followed here is patent US20230022157A1 (Achillion Pharmaceuticals, Inc., priority 2018, published 2023).

The structures appear in SMILES notation. pIC50: −log10 of the molar value. Read-outs that look alike come from different tables or passages of the source.

The target of this assay is T1, Human Factor D (Homo sapiens, UniProt P00746).
T1 construct: purified from human serum; purchased Complement Technology, Inc; host or cells: human serum (natural protein, not recombinant)
The experiment in a line: Human Factor D Assay. Format: biochemical. Conditions: Human Factor D 80 nM, substrate Z-L-Lys-SBzl, read-out: IC50 (Stars). The essentials: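 Serum-purified human factor D (80 nM final) preincubated 5 min at room temperature with test compound in 50 mM Tris, 1M NaCl, pH 7.5. Z-L-Lys-SBzl substrate and DTNB then added, each at 100 μM final. IC50 from nonlinear regression of reaction rate against compound concentration.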

T1 sequence (P00746 26-253): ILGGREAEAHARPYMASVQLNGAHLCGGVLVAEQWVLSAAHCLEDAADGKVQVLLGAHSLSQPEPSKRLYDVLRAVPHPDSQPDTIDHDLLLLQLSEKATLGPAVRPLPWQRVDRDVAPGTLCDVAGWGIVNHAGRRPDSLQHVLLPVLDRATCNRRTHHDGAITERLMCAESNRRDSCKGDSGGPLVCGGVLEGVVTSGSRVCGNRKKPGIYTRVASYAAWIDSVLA

Consider `CC(=O)c1cn(CC(=O)N2[C@H](C(=O)Nc3ccc(F)c(Br)n3)C[C@@]3(C)C[C@@H]23)c2c(C)cc(-c3cnc(C)nc3)cc12` [Compound 194, (1R,3S,5R)-2-(2-(3-acetyl-7-methyl-5-(2-methylpyrimidin-5-yl)-1H-indol-1-yl)acetyl)-N-(6-bromo-5-fluoropyridin-2-yl)-5-methyl-2-azabicyclo[3.1.0]hexane-3-carboxamide], for which the pIC50 (Table 2) was over 6.00.
Turning to `CC(=O)c1cn(CC(=O)N2[C@H](C(=O)Nc3cnc(C)c(Br)n3)C[C@@]3(C)C[C@@H]23)c2c(C)cc(-c3cnc(C)nc3)cc12` [Compound 160, (1R,3S,5R)-2-(2-(3-acetyl-7-methyl-5-(2-methylpyrimidin-5-yl)-1H-indol-1-yl)acetyl)-N-(6-bromo-5-methylpyrazin-2-yl)-5-methyl-2-azabicyclo[3.1.0]hexane-3-carboxamide], the pIC50 (Table 2) is over 6.00.
On the same count and under the same terms, under `CC(=O)c1cn(CC(=O)N2[C@H](C(=O)Nc3ccc(C)c(Br)n3)C[C@@]3(C)C[C@@H]23)c2c(C)cc(-c3cnc(C)nc3)cc12` [Compound 156, (1R,3S,5R)-2-(2-(3-acetyl-7-methyl-5-(2-methylpyrimidin-5-yl)-1H-indol-1-yl)acetyl)-N-(6-bromo-5-methylpyridin-2-yl)-5-methyl-2-azabicyclo[3.1.0]hexane-3-carboxamide] stands over 6.00; under `CC(=O)c1nn(CC(=O)N2[C@H](C(=O)Nc3cnc(C)c(Br)n3)C[C@@]3(C)C[C@@H]23)c2c(C)cc(-c3cnc(CO)nc3)cc12` [Compound 94, (1R,3S,5R)-2-(2-(3-acetyl-5-(2-(hydroxymethyl)pyrimidin-5-yl)-7-methyl-1H-indazol-1-yl)acetyl)-N-(6-bromo-5-methylpyrazin-2-yl)-5-methyl-2-azabicyclo[3.1.0]hexane-3-carboxamide], over 6.00; under `CC(=O)c1nn(CC(=O)N2[C@H](C(=O)NCCC3CC3)C[C@@]3(C)C[C@@H]23)c2c(C)cc(-c3cnc(C)nc3)cc12` [Compound 105, (1R,3S,5R)-2-{2-[3-acetyl-7-methyl-5-(2-methylpyrimidin-5-yl)indazol-1-yl]acetyl}-N-(2-cyclopropylethyl)-5-methyl-2-azabicyclo[3.1.0]hexane-3-carboxamide], over 6.00.
For `COC(=O)c1ncc(-c2cc(C)c3c(c2)c(C(C)=O)nn3CC(=O)N2[C@H](C(=O)Nc3nc(Br)ccc3C)C[C@@]3(C)C[C@@H]23)cn1` [Compound 38, methyl 5-(3-acetyl-1-(2-((1R,3S,5R)-3-((6-bromo-3-methylpyridin-2-yl)carbamoyl)-5-methyl-2-azabicyclo[3.1.0]hexan-2-yl)-2-oxoethyl)-7-methyl-1H-indazol-5-yl)pyrimidine-2-carboxylate], the pIC50 (assay of Example 3) was over 6.00.
For the compound `COc1cc(Br)nc(NC(=O)[C@@H]2[C@@H]3C[C@@H]3CN2C(=O)Cn2nc(C(C)=O)c3cc(-c4cnc(CO)nc4)cc(C)c32)c1` [Compound 73, (1R,2S,5S)-3-(2-(3-acetyl-5-(2-(hydroxymethyl)pyrimidin-5-yl)-7-methyl-11H-indazol-1-yl)acetyl)-N-(6-bromo-4-methoxypyridin-2-yl)-3-azabicyclo[3.1.0]hexane-2-carboxamide], under “Table 2”, the pIC50 was over 6.00.
Still for that read-out and setting: under `Cc1ncc(-c2cc3c(C(N)=O)nn(CC(=O)N4[C@H](C(=O)Nc5cncc(Br)n5)C[C@@]5(C)C[C@@H]45)c3c(C)n2)cn1` [Compound 92, 1-{2-[3-(6-Bromo-pyrazin-2-ylcarbamoyl)-5-methyl-2-aza-bicyclo[3.1.0]hex-2-yl]-2-oxo-ethyl}-7-methyl-5-(2-methyl-pyrimidin-5-yl)-1H-pyrazolo[3,4-c]pyridine-3-carboxylic acid amide] stands over 6.00.
With `CC(=O)c1cn(CC(=O)N2[C@H](C(=O)Nc3nc(OC(F)(F)F)ccc3C)C[C@@]3(C)C[C@@H]23)c2c(C)cc(-c3cnc4cc(C)nn4c3)cc12` [Compound 206, (1R,3S,5R)-2-(2-(3-acetyl-7-methyl-5-(2-methylpyrazolo[1,5-a]pyrimidin-6-yl)-1H-indol-1-yl)acetyl)-5-methyl-N-(3-methyl-6-(trifluoromethoxy)pyridin-2-yl)-2-azabicyclo[3.1.0]hexane-3-carboxamide], the pIC50 (Table 2) was over 6.00.
In the case of `CC(=O)c1nn(CC(=O)N2[C@H](C(=O)Nc3nc(Br)ccc3C)C[C@@]3(CO)C[C@@H]23)c2c(C)cc(-c3cnc(CO)nc3)cc12` [Compound 31], the negative logarithm of the IC50 (pIC50) (assay of Example 3) is over 6.00.
In the case of `CC(=O)c1nn(CC(=O)N2[C@H](C(=O)Nc3nc(Br)ccc3C)C[C@@]3(C)C[C@@H]23)c2c(C)cc(-c3cnc([C@H](C)O)nc3)cc12` (single isomer, unassigned) [Compound 141], where the note is “Table 2”, the pIC50 was over 6.00.
On to `CC(=O)c1nn(CC(=O)N2[C@H](C(=O)NC(C)Cc3ccc(O)cc3)C[C@@]3(C)C[C@@H]23)c2c(C)cc(-c3cnc(C)nc3)cc12` (stereo partly drawn) [Compound 147, (1R,3S,5R)-2-{2-[3-acetyl-7-methyl-5-(2-methylpyrimidin-5-yl)indazol-1-yl]acetyl}-N-[1-(4-hydroxyphenyl)propan-2-yl]-5-methyl-2-azabicyclo[3.1.0]hexane-3-carboxamide], for which the pIC50 (Table 2) is over 6.00.
As to `CC(=O)c1cn(CC(=O)N2[C@H](C(=O)Nc3nc(Br)c(F)cc3C)C[C@@]3(C)C[C@@H]23)c2c(C3CC3)cc(-c3cnc(C)nc3)cc12` [Compound 162], for the setting “Table 2”, the pIC50 is over 6.00.
As to `CC(=O)c1nn(CC(=O)N2[C@H](C(=O)NCC3CCc4ccccc4C3)C[C@@]3(C)C[C@@H]23)c2c(C)cc(-c3cnc(C)nc3)cc12` (stereo partly drawn) [Compound 117, (1R,3S,5R)-2-{2-[3-acetyl-7-methyl-5-(2-methylpyrimidin-5-yl)indazol-1-yl]acetyl}-5-methyl-N-(1,2,3,4-tetrahydronaphthalen-2-ylmethyl)-2-azabicyclo[3.1.0]hexane-3-carboxamide], the pIC50 (Table 2) was over 6.00.
Take `CC(=O)c1nn(CC(=O)N2[C@H](C(=O)NCC3(C)CC3)C[C@@]3(C)C[C@@H]23)c2c(C)cc(-c3cnc(C)nc3)cc12` [Compound 89, (1R,3S,5R)-2-{2-[3-acetyl-7-methyl-5-(2-methylpyrimidin-5-yl)indazol-1-yl]acetyl}-5-methyl-N-[(1-methylcyclopropyl)methyl]-2-azabicyclo[3.1.0]hexane-3-carboxamide]: the pIC50 (Table 2) is over 6.00.
`CC(=O)c1nn(CC(=O)N2[C@H](C(=O)NC(C)Cc3ccccc3F)C[C@@]3(C)C[C@@H]23)c2c(C)cc(-c3cnc(C)nc3)cc12` (stereo partly drawn) [Compound 186, (1R,3S,5R)-2-{2-[3-acetyl-7-methyl-5-(2-methylpyrimidin-5-yl)indazol-1-yl]acetyl}-N-[1-(2-fluorophenyl)propan-2-yl]-5-methyl-2-azabicyclo[3.1.0]hexane-3-carboxamide]: the pIC50 (Table 2) is over 6.00.
Consider `CC(=O)c1nn(CCN2C[C@H](F)C[C@H]2C(=O)Nc2cccc(Br)n2)c2ccc(-c3cnc(C)nc3)cc12` [Compound 139, (2S,4R)-1-(2-(3-acetyl-5-(2-methylpyrimidin-5-yl)-1H-indazol-1-yl)ethyl)-N-(6-bromopyridin-2-yl)-4-fluoropyrrolidine-2-carboxamide], for which, under “Table 2”, the pIC50 was under 5.00.
In the case of `CC(=O)c1nn(CC(=O)N2[C@H](C(=O)Nc3nc(Br)ccc3C)C[C@@]3(CO)C[C@@H]23)c2c(C)cc(-c3cnc(C)nc3)cc12` [Compound 21, (1R,3S,5S)-2-(2-(3-Acetyl-7-methyl-5-(2-methylpyrimidin-5-yl)-1H-indazol-1-yl)acetyl)-N-(6-bromo-3-methylpyridin-2-yl)-5-(hydroxymethyl)-2-azabicyclo[3.1.0]hexane-3-carboxamide], the pIC50 (assay of Example 3) is over 6.00.
On the same count and under the same terms, in the case of `CC(=O)c1nn(CC(=O)N2[C@H](C(=O)Nc3cccc(Br)n3)C[C@@]3(C)C[C@@H]23)c2c3c(c(-c4cnc(C)nc4)cc12)CCCO3` [Compound 19, (1R,3S,5R)-2-(2-(3-acetyl-5-(2-methylpyrimidin-5-yl)-7,8-dihydropyran[3,2-g]indazol-1(6H)-yl)acetyl)-N-(6-bromopyridin-2-yl)-5-methyl-2-azabicyclo[3.1.0] hexane-3-carboxamide] it was over 6.00.
As for `CC(=O)c1nn(CC(=O)N2[C@H](C(=O)N[C@@H]3CCCCC34OCCO4)C[C@@]3(C)C[C@@H]23)c2c(C)cc(-c3cnc(C)nc3)cc12` (single isomer, unassigned) [Compound 136], the pIC50 (Table 2) is over 6.00.
As to `CC(=O)c1cn(CC(=O)N2[C@H](C(=O)Nc3nc(Br)c(F)cc3C)C[C@@]3(C)C[C@@H]23)c2c(C)cc(-c3cnc(C(C)O)nc3)cc12` (stereo partly drawn) [Compound 158], the pIC50 (Table 2) was over 6.00.
On to `CC(=O)c1nn(CC(=O)N2[C@H](C(=O)Nc3nc(Br)ccc3C)C[C@@]3(C)C[C@@H]23)c2c(C)cc(-c3cncc(S(C)(=O)=O)c3)cc12` [Compound 129, (1R,3S,5R)-2-(2-(3-Acetyl-7-methyl-5-(5-(methylsulfonyl)pyridin-3-yl)-1H-indazol-1-yl)acetyl)-N-(6-bromo-3-methylpyridin-2-yl)-5-methyl-2-azabicyclo[3.1.0]hexane-3-carboxamide], for which the negative logarithm of the IC50 (pIC50) (Table 2) was over 6.00.
As for `CC(=O)c1cn(CC(=O)N2[C@H](C(=O)Nc3nc(C(F)(F)F)ccc3C)C[C@@]3(C)C[C@@H]23)c2c(CO)nc(-c3cnc(C)nc3)cc12` [Compound 207, (1R,3S,5R)-2-(2-(3-acetyl-7-(hydroxymethyl)-5-(2-methylpyrimidin-5-yl)-1H-pyrrolo[2,3-c]pyridin-1-yl)acetyl)-5-methyl-N-(3-methyl-6-(trifluoromethyl)pyridin-2-yl)-2-azabicyclo[3.1.0]hexane-3-carboxamide], the pIC50 (Table 2) is over 6.00.
On to `CC(=O)c1nn(CC(=O)N2[C@H](C(=O)Nc3cccc(C(F)(F)F)c3F)C[C@@]3(C)C[C@@H]23)c2cnc(-c3cnc(C)nc3)cc12` [Compound 23, (1R,3S,5R)-2-(2-(3-Acetyl-5-(2-methylpyrimidin-5-yl)-1H-pyrazolo[3,4-C]pyridine-1-yl)acetly)-N-(2-fluoro-3-(trifluoromethyl)phenyl)-5-methyl-2-azabicyclo[3.1.0]hexane-3-carboxamide], for which the pIC50 (assay of Example 3) is over 6.00.
